Data reported in PMC8413904 (Pharmacology Research & Perspectives, 2021).
Read-outs that look alike come from different tables or passages of the source. Blank lines part the entries; values can stand above or below the molecule they belong to.

Legend:
[1] = test system: cultured rat brain cortical neurons; assay: Dynamic calcium assay (Fluo‐8); format: cell-based
Method: (§1) All animal experimental procedures and housing have been approved by the Institutional Animal Care and Use Committee (IACUC) protocol #18‐015 of Virginia Tech. Embryonic day 18 (E18) rat brain tissue samples were obtained from adult pregnant SD rats. Rat brain primary cortical, striatal, and cerebellar neurons were cultured on poly‐d‐lysine coated 96‐well plates for 14 days in vitro (DIV14) before using for the experiments. Primary rat neuron culture was performed as previously published.[44] Briefly, each well of a 96 well plate was loaded with 50 000 cells and grown in 200 µl neurobasal media supplemented with B27, glutamax, penicillin, streptomycin. One hundred microliters of media was replaced with fresh media once in 4 days. Eight to thirteen fetus were obtained from each pregnant rat. Brain tissue from these fetus were pooled to obtain the neurons. Cortical, striatal, and cerebellar neuron assays were carried out at different time points.
Dynamic calcium assay was carried out, using Fluo‐8 no‐wash kit (abcam, ab112129), as per the manufacturer's instructions with minor modifications to fit with experimental necessities. On DIV14, all 200 μl of media was removed and replaced it with 100 μl of HBSS and 100 μl of Fluo‐8 dye loading solution. The plates were incubated at 37°C for 30 min and at room temperature for 30 min. […] Costar 96‐well clear bottom black side plates were read from the bottom, nine times, with 60 s intervals between each read. Temperature was set at 37°C and reading speed was 100 ms.

[2] = target: T1, GluN1/2A (UniProt P35439+Q12879); design: method as in PMID 30553788; settings: at −60 mV; read-out: Mg^2+ IC50; cited from earlier work
T1 sequence (Q12879 23-1464, other chains not shown): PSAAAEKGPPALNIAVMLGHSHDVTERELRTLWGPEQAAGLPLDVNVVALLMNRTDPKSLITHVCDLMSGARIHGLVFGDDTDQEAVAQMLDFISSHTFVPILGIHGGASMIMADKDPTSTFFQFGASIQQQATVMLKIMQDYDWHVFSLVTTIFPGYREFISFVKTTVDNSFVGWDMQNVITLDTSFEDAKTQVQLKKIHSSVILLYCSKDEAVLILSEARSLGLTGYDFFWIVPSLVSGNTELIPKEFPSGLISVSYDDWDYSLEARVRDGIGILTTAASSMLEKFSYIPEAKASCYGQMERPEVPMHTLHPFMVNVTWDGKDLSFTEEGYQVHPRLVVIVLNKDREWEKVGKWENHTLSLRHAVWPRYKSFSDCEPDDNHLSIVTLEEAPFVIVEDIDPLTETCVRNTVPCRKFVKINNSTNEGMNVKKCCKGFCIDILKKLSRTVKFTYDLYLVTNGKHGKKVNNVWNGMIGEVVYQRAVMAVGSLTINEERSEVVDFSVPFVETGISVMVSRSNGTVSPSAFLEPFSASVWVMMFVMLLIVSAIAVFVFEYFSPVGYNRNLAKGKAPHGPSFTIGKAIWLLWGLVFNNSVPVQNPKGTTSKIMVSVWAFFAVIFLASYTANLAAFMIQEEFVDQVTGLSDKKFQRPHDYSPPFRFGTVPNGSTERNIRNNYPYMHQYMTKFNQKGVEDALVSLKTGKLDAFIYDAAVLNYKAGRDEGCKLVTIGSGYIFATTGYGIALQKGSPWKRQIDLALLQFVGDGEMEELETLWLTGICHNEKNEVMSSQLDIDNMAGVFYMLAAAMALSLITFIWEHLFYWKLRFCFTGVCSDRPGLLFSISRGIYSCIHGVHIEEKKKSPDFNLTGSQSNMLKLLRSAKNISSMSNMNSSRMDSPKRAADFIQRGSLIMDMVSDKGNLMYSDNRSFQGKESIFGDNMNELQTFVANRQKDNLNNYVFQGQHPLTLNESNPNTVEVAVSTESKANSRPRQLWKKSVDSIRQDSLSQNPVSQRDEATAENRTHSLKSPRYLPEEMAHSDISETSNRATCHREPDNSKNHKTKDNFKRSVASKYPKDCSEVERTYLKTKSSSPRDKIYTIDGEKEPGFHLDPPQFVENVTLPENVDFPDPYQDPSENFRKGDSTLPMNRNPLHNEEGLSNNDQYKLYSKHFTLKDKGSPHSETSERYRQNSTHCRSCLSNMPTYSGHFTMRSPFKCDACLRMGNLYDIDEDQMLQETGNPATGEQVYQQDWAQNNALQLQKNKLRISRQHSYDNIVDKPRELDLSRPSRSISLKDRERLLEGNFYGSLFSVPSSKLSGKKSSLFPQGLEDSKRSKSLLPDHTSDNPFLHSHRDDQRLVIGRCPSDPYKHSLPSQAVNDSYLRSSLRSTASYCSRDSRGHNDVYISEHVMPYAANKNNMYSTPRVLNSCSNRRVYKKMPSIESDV

[3] = test system: cultured rat brain striatal neurons; assay: Na^+ assay (CoroNa green‐AM); format: cell-based; settings: 300 µM NMDA alone
Method: as §1
(§2) For Na^+ assay, DIV14 neurons were washed with HBSS and treated with freshly prepared CoroNa green‐AM dye (ThermoFisher, cat # C36676) and incubated for 45 min in 37°C. Plates were washed twice with HBSS before adding drug solutions dissolved in HBSS, and read at 492/516 nm (ex/em) using a plate reader. RFU values of background control and treatments were plotted to identify the effect of CNS4 on NMDA‐induced Na^+ flux in the neurons.

[4] = test system: cultured rat brain cerebellar neurons; assay: Na^+ assay (CoroNa green‐AM); format: cell-based; settings: 300 µM NMDA alone
Method: as §1, §2

[5] = test system: cultured rat brain striatal neurons; assay: Dynamic calcium assay (Fluo‐8); format: cell-based; settings: 300 µM NMDA alone
Method: as §1
(§3) Dynamic calcium assay was carried out, using Fluo‐8 no‐wash kit (abcam, ab112129), as per the manufacturer's instructions with minor modifications to fit with experimental necessities. On DIV14, all 200 μl of media was removed and replaced it with 100 μl of HBSS and 100 μl of Fluo‐8 dye loading solution. The plates were incubated at 37°C for 30 min and at room temperature for 30 min. A volume of 100 µL of test chemicals (3× of desired final concentration) was added to the plates immediately before running the calcium flux assay and read the fluorescence intensity at 490/525 nm (ex/em) using Synergy microplate reader, BioTek, VT. Costar 96‐well clear bottom black side plates were read from the bottom, nine times, with 60 s intervals between each read. Temperature was set at 37°C and reading speed was 100 ms.

[6] = test system: cultured rat brain cerebellar neurons; assay: Dynamic calcium assay (Fluo‐8); format: cell-based; settings: 300 µM NMDA alone
Method: as §1, §3

[7] = target: GluN1/2D (UniProt O15399+P35439); assay: TEVC electrophysiology dose–response in xenopus oocytes; format: cell-based; design: host or cells: Xenopus oocytes (cRNA injection)
GluN1/2D, sequence (O15399 28-1336, other chains not shown): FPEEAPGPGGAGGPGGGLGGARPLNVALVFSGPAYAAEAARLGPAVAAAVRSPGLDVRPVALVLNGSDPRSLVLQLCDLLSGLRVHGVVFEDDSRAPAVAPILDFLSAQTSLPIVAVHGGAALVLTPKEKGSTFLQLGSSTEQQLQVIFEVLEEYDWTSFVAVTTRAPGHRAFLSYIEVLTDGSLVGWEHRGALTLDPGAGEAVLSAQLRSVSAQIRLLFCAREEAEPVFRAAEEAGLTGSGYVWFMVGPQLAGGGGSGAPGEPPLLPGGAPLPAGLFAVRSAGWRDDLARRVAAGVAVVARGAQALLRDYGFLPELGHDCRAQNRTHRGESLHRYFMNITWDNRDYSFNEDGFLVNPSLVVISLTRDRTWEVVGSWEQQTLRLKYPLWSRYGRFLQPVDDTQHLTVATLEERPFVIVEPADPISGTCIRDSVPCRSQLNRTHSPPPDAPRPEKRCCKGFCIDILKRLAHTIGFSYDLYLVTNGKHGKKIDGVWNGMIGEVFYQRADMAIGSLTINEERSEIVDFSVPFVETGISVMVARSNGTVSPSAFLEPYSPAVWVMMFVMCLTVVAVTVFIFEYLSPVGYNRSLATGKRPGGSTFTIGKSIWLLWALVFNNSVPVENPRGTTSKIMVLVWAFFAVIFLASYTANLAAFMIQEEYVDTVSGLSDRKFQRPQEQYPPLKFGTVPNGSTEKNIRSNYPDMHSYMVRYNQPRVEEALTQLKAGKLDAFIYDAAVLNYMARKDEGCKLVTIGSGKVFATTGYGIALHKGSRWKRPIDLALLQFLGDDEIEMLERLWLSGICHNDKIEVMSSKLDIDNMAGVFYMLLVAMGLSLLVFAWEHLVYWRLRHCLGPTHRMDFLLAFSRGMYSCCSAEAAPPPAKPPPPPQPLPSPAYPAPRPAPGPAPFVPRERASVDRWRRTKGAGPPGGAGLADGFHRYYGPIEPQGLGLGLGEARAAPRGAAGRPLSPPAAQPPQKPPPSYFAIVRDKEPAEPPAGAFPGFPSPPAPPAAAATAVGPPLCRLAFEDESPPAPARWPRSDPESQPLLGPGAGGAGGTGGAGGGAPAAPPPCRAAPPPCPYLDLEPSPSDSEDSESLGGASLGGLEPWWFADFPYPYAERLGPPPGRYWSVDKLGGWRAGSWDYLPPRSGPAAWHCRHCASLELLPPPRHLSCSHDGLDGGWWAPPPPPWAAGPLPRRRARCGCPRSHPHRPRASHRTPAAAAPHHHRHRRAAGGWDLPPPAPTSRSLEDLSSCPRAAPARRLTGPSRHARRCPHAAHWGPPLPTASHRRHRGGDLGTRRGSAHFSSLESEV

[8] = test system: cultured rat brain cortical neurons; assay: Na^+ assay (CoroNa green‐AM); format: cell-based
Method: as §1
as §2, with “Plates were washed twice with HBSS before adding drug solutions dissolved in HBSS, and read at 492/516 nm (ex/em) using a plate reader.” left out

[9] = target: T1, GluN1/2A; assay: TEVC electrophysiology dose–response in xenopus oocytes; format: cell-based

Molecule: NCCCC(=O)O [GABA, reference compound]
Ca^2+ signal, mean rfu ([1]; 100 µM GABA, baseline 7673, p < .0001): 4196 rfu

Molecule: C[N+](C)(C)CCCCCC[N+](C)(C)C [Hexamethonium, reference compound]
Ca^2+ signal, mean rfu ([1]; 50 µM hexamethonium + 100 µM acetylcholine, p > .9999 vs acetylcholine (6222)): 6228 rfu

Molecule: [Cl-].[Cl-].[Mg+2] [MgCl2]
IC50 [2]: 40 µM

Molecule: CN[C@H](CC(=O)O)C(=O)O [NMDA, N‐methyl D‐aspartate, reference compound]
Ca^2+ signal, mean rfu ([1]; 300 µM NMDA alone): 26711 rfu | Na^+ signal compared to the background control [3]: did not significantly increase | Na^+ signal compared to the background control [4]: did not significantly increase | Ca^2+ signal, mean rfu [5]: 20964 rfu | Ca^2+ signal, rfu [6]: 12810 rfu

Molecule: CC(=O)OCC[N+](C)(C)C [acetylcholine, reference compound]
Ca^2+ signal, mean rfu ([1]; 100 µM acetylcholine, baseline 7673, p < .0001): 6222 rfu

EC50 [7]: 0.34 ± 0.01 µM
Molecule: N[C@@H](CCC(=O)O)C(=O)O [glutamate, L‐glutamic acid, reference compound]
Ca^2+ signal, mean rfu ([1]; 100 µM glutamate, Figure 8A, baseline 7673): 21956 rfu | Na^+ signal, mean rfu ([8]; 100 µM glutamate, Figure 8B, baseline vs glutamate 514004 vs. 505677, p = .4055): 505677 rfu

Molecule: CC(C(O)c1ccc(O)cc1)N1CCC(Cc2ccccc2)CC1 (stereo not shown) [ifenprodil, reference compound]
IC50 [9]: 202 ± 25.1 µM

Molecule: CC12CC3CC(C)(C1)CC(N)(C3)C2 [memantine, reference compound]
effect on NMDA‐induced Ca^2+ signal ([1]; 50 µM memantine added to NMDA, Figure 6): reversed the NMDA‐induced Ca^2+ signal back to the control level | Na^+ signal, mean rfu ([8]; NMDA plus 50 µM memantine, p < .01 vs NMDA alone (400251)): 412868 rfu

Molecule: picrotoxin [reference compound]
effect on GABA mediated reduction of baseline Ca^2+ response ([1]; 50 µM picrotoxin + 100 µM GABA): unaltered
